In PubChem BioAssay (NCI):
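Interpolation was linear, between the two tested concentrations surrounding the appropriate level; five concentrations were tested over 48 hours in 96-well plates. At the TGI there is no net growth.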

Experiments:
Experiment in all cases: DTP human tumour cell line panel, 48 h
UACC-257 melanoma = tested on: UACC-257 melanoma
SK-MEL-5 melanoma = tested on: SK-MEL-5 melanoma
BT-549 breast = tested on: BT-549 breast
SK-OV-3 ovarian = tested on: SK-OV-3 ovarian
OVCAR-3 ovarian = tested on: OVCAR-3 ovarian
SNB-75 CNS = tested on: SNB-75 CNS
LOX IMVI melanoma = tested on: LOX IMVI melanoma
MDA-N = tested on: MDA-N
SF-268 CNS = tested on: SF-268 CNS
HT29 colon = tested on: HT29 colon
NCI-H23 lung = tested on: NCI-H23 lung
T-47D breast = tested on: T-47D breast
HOP-92 NSCLC = tested on: HOP-92 NSCLC
UO-31 renal = tested on: UO-31 renal
A549 NSCLC = tested on: A549 NSCLC
COLO 205 colon = tested on: COLO 205 colon
K-562 leukemia = tested on: K-562 leukemia
786-0 renal = tested on: 786-0 renal
HCT-116 colon = tested on: HCT-116 colon
NCI-H522 lung = tested on: NCI-H522 lung
U251 CNS = tested on: U251 CNS
SR leukemia = tested on: SR leukemia
SK-MEL-28 melanoma = tested on: SK-MEL-28 melanoma
NCI/ADR-RES ovarian = tested on: NCI/ADR-RES ovarian
NCI-H226 lung = tested on: NCI-H226 lung
OVCAR-4 ovarian = tested on: OVCAR-4 ovarian
IGROV1 ovarian = tested on: IGROV1 ovarian
MCF7 breast = tested on: MCF7 breast
HS 578T breast = tested on: HS 578T breast
SK-MEL-2 melanoma = tested on: SK-MEL-2 melanoma
NCI-H460 lung = tested on: NCI-H460 lung
M14 melanoma = tested on: M14 melanoma
RPMI-8226 leukemia = tested on: RPMI-8226 leukemia
PC-3 prostate = tested on: PC-3 prostate
DU-145 prostate = tested on: DU-145 prostate
RXF 393 renal = tested on: RXF 393 renal
MOLT-4 leukemia = tested on: MOLT-4 leukemia
EKVX NSCLC = tested on: EKVX NSCLC
SW-620 colon = tested on: SW-620 colon
OVCAR-5 ovarian = tested on: OVCAR-5 ovarian
HCC-2998 colon = tested on: HCC-2998 colon
KM12 colon = tested on: KM12 colon
UACC-62 melanoma = tested on: UACC-62 melanoma
MDA-MB-231 breast = tested on: MDA-MB-231 breast
TK-10 renal = tested on: TK-10 renal
HOP-62 NSCLC = tested on: HOP-62 NSCLC
MDA-MB-435 = tested on: MDA-MB-435
HCT-15 colon = tested on: HCT-15 colon
CAKI-1 renal = tested on: CAKI-1 renal
A498 renal = tested on: A498 renal
CCRF-CEM leukemia = tested on: CCRF-CEM leukemia
ACHN renal = tested on: ACHN renal
SN12C renal = tested on: SN12C renal
OVCAR-8 ovarian = tested on: OVCAR-8 ovarian
SNB-19 CNS = tested on: SNB-19 CNS
MALME-3M melanoma = tested on: MALME-3M melanoma
SF-295 CNS = tested on: SF-295 CNS

Work on O=C1C(c2c(O)n(-c3ccccc3)c3ccccc23)=Nc2ccccc21 yielded a TGI (UACC-257 melanoma) greater than 100 µM, a TGI (SK-MEL-5 melanoma) of 69.8 µM and a TGI (BT-549 breast) greater than 100 µM. For the same molecule, the TGI (SK-OV-3 ovarian) was greater than 100 µM, the TGI (OVCAR-3 ovarian) was greater than 100 µM and the TGI (SNB-75 CNS) was 40.4 µM. The TGI (LOX IMVI melanoma) was greater than 100 µM, the TGI (MDA-N) was greater than 100 µM and the TGI (SF-268 CNS) was greater than 100 µM. For the same molecule, the TGI (HT29 colon) was greater than 100 µM, the TGI (NCI-H23 lung) was greater than 100 µM and the TGI (T-47D breast) was 71.9 µM. For the same molecule, the TGI (HOP-92 NSCLC) was 84.9 µM, the TGI (UO-31 renal) was greater than 100 µM and the TGI (A549 NSCLC) was greater than 100 µM. It also gave a TGI (COLO 205 colon) of 66.3 µM, a TGI (K-562 leukemia) greater than 100 µM and a TGI (786-0 renal) of 36.7 µM. The TGI (HCT-116 colon) was greater than 100 µM, the TGI (NCI-H522 lung) was greater than 100 µM and the TGI (U251 CNS) was greater than 100 µM. For the same molecule, the TGI (SR leukemia) was greater than 100 µM, the TGI (SK-MEL-28 melanoma) was greater than 100 µM and the TGI (NCI/ADR-RES ovarian) was greater than 100 µM. It also gave a TGI (NCI-H226 lung) of 70 µM, a TGI (OVCAR-4 ovarian) greater than 100 µM and a TGI (IGROV1 ovarian) greater than 100 µM. It also gave a TGI (MCF7 breast) of 37 µM, a TGI (HS 578T breast) greater than 100 µM and a TGI (SK-MEL-2 melanoma) of 97.3 µM. For the same molecule, the TGI (NCI-H460 lung) was greater than 100 µM, the TGI (M14 melanoma) was greater than 100 µM and the TGI (RPMI-8226 leukemia) was greater than 100 µM. The TGI (PC-3 prostate) was 80.9 µM, the TGI (DU-145 prostate) was greater than 100 µM and the TGI (RXF 393 renal) was 41.6 µM. For the same molecule, the TGI (MOLT-4 leukemia) was greater than 100 µM, the TGI (EKVX NSCLC) was 83.2 µM and the TGI (SW-620 colon) was greater than 100 µM. For the same molecule, the TGI (OVCAR-5 ovarian) was greater than 100 µM, the TGI (HCC-2998 colon) was 75.5 µM and the TGI (KM12 colon) was greater than 100 µM. It also gave a TGI (UACC-62 melanoma) greater than 100 µM, a TGI (MDA-MB-231 breast) of 81.5 µM and a TGI (TK-10 renal) of 53.6 µM. The TGI (HOP-62 NSCLC) was greater than 100 µM, the TGI (MDA-MB-435) was greater than 100 µM and the TGI (HCT-15 colon) was greater than 100 µM. It also gave a TGI (CAKI-1 renal) greater than 100 µM, a TGI (A498 renal) of 75.7 µM and a TGI (CCRF-CEM leukemia) greater than 100 µM. For the same molecule, the TGI (ACHN renal) was 79.5 µM, the TGI (SN12C renal) was greater than 100 µM and the TGI (OVCAR-8 ovarian) was greater than 100 µM. It also gave a TGI (SNB-19 CNS) greater than 100 µM, a TGI (MALME-3M melanoma) greater than 100 µM and a TGI (SF-295 CNS) greater than 100 µM.
